Test results reported in patent publication US8722642B2, “Multiantivirus compound, composition and method for treatment of virus diseases” (Biocell Laboratories, priority 2011, dated 2014).

What was measured:
[1] = test system: hemagglutinin of influenza virus AFM 1/47 (H1N1); assay: Hemagglutination reaction: influence on hemagglutinin activity of influenza virus; assay type: biochemical
[2] = test system: influenza virus A/FM/1/47(H1N1), adapted for lungs of white mice; assay: Model of influenza pneumonia in mice; assay type: in vivo; settings: Tamiflu, dose not given, intra-abdominal

Compound: OC[C@@H](O)[C@@H](O)[C@H](O)[C@H](O)CO [Mannitol]
- Difference in the virus titers ([1]; 0.5 mg/ml, temperature of reaction 30 ° C.): 0 log2x
- Virus titer in the experiment ([1]; 0.5 mg/ml, temperature of reaction 30 ° C., control virus 8): 8 log2x

Compound: CCOC(=O)C1=C[C@@H](OC(CC)CC)[C@H](NC(C)=O)[C@@H](N)C1 [Tamiflu, Oseltamivir]
- % died ([2]; preventive regimen): 30 ± 1.0%
- CP (Coefficient of protection) ([2]; preventive regimen): 5.0
- IE (Index of effectiveness) ([2]; preventive regimen): 70.0
- % died ([2]; treatment regimen): 20.0 ± 0.5%
- CP (Coefficient of protection) ([2]; treatment regimen): 10.0
- IE (Index of effectiveness) ([2]; treatment regimen): 80.0

Compound: Poliguanylic acid [Poly G]
- Difference in virus titers ([1]; concentration 10 mg/ml): 0 lg2^X
- Virus titer in the experiment ([1]; concentration 10 mg/ml, […]): 9 lg2^X

Compound: Polyadenylic acid [Poly A]
- Difference in virus titers ([1]; concentration 10 mg/ml): 2 lg2^X
- Virus titer in the experiment ([1]; concentration 10 mg/ml, […]): 7 lg2^X

Compound: Polycytydilic acid [Poly C]
- Difference in virus titers ([1]; concentration 10 mg/ml): 2 lg2^X
- Virus titer in the experiment ([1]; concentration 10 mg/ml, […]): 7 lg2^X

Compound: Polyinosinic:polycytidylic acid [PolyIC]
- Difference in virus titers ([1]; concentration 10 mg/ml): 3 lg2^X
- Virus titer in the experiment ([1]; concentration 10 mg/ml, […]): 9 lg2^X

Compound: Polyinosylic acid [Poly I]
- Difference in virus titers ([1]; concentration 10 mg/ml): 3 lg2^X
- Virus titer in the experiment ([1]; concentration 10 mg/ml, […]): 6 lg2^X

Compound: Polyurydylic acid [Poly U]
- Difference in virus titers ([1]; concentration 10 mg/ml): 2 lg2^X
- Virus titer in the experiment ([1]; concentration 10 mg/ml, […]): 9 lg2^X
